Here are results for 19 compounds from PubChem BioAssay (NCI).

In brackets after ≈: the same amount, converted by molar mass. Several values for one entry are separate records, joined by “and”; a condition that tells them apart may be missing. Equal entries are not always repeated.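 Cultured in 96-well plates, cells were exposed to test compound for 48 hours across five concentrations. The concentration for 50% growth inhibition is given as GI50. The concentration for full growth arrest is given as TGI.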 Some results are limits rather than exact numbers.

Among the test systems are DMS 114 small cell lung; PC-3 prostate; DU-145 prostate; MDA-N; T-47D breast; BT-549 breast; XF 498 CNS.
Experiment in all cases: inhibition of tumour cell growth, NCI panel, 48 h

Consider `CCOC(=O)c1ccc(N2C(=O)Cc3ccccc3C2=O)cc1`, for which the TGI in the assay with DMS 114 small cell lung is over 100 µM.
With `CCc1ccc2nccc(NCCCN(C)C)c2c1[N+](=O)[O-]`, the TGI in the assay with PC-3 prostate, in the assay on DU-145 prostate, in the assay with MDA-N and in the assay on T-47D breast was over 100 µM each time.
`C=C1C(OC/C=C/COC2O[C@@H]3O[C@@]4(C)CC[C@H]5[C@H](C)CC[C@@H](C2=C)[C@@]35OO4)O[C@@H]2O[C@@]3(C)CC[C@H]4[C@H](C)CC[C@@H]1[C@@]24OO3` (some centres undefined): the GI50 with PC-3 prostate is under 0.0141 µM; in the assay on DU-145 prostate, 15.5 µM; with BT-549 breast, 3.07 µM; in the assay with T-47D breast, 0.0158 µM. The TGI with PC-3 prostate amounted to 32.5 µM; in the assay with DU-145 prostate, 37.6 µM; with BT-549 breast, 41.1 µM; in the assay with T-47D breast, 21.2 µM.
For the compound `Nc1nccc2c1ncn2C1OC(CO)C(O)C1O` (centres undefined), the GI50 was over 100 µM with PC-3 prostate, over 100 µM in the assay with DU-145 prostate, 88.8 µM in the assay with BT-549 breast and over 100 µM with T-47D breast. For the same compound, the TGI in the assay on PC-3 prostate, with DU-145 prostate, with BT-549 breast and with T-47D breast was over 100 µM each time.
Turning to `COc1cccc(N=N/C(=N\NC(=O)c2cc(Br)ccc2O)c2ccc(N(CCC#N)CCC#N)cc2OC)c1`, the GI50 in the assay with PC-3 prostate is 49.5 µg/mL; in the assay with DU-145 prostate, 87.2 µg/mL; in the assay on BT-549 breast it was 74.1 µg/mL; with MDA-N, 59.3 µg/mL (≈ 98 µM); in the assay with T-47D breast it was 64 µg/mL. Further, the TGI in the assay with PC-3 prostate, in the assay on DU-145 prostate, in the assay with BT-549 breast, in the assay with MDA-N and in the assay with T-47D breast was over 150 µg/mL each time.
On to `CC(NC(=O)C(=O)N/N=C1\C[C@@H](c2ccccc2)Nc2ccccc21)c1ccccc1` (some centres undefined), for which the TGI with XF 498 CNS and with DMS 114 small cell lung was over 100 µM in each case.
On to `COc1cc2c3c(n(CCCBr)c(=O)c2cc1OC)-c1ccc(F)cc1C3=O`, for which the GI50 with PC-3 prostate is 45.8 µM; with DU-145 prostate it was 4.33 µM; in the assay on BT-549 breast, 13.9 µM; in the assay with T-47D breast it was 4.86 µM. The TGI with PC-3 prostate is over 100 µM; with DU-145 prostate, 20.6 µM; in the assay on BT-549 breast, 49.7 µM; in the assay on T-47D breast, 62 µM.
On to `NS(=O)(=O)c1ccc(-n2ncc3c(Nc4ccccc4)ncnc32)cc1`, for which the GI50 was 35.1 µM with PC-3 prostate, 35.6 µM in the assay on DU-145 prostate, 30.3 µM in the assay on BT-549 breast and 24.2 µM in the assay on T-47D breast. In addition, the TGI in the assay on PC-3 prostate was over 100 µM; in the assay with DU-145 prostate, over 100 µM; in the assay on BT-549 breast, 92.8 µM; in the assay on T-47D breast, over 100 µM.
Consider `OCC(CCc1c[nH]c2ccccc12)c1c[nH]c2ccccc12` (centres undefined), for which the TGI is 32.3 µM in the assay with PC-3 prostate; 32.7 µM with DU-145 prostate; 30.5 µM with BT-549 breast; 31 µM in the assay with MDA-N; 35.6 µM with T-47D breast.
Consider `CNC1=C(C(=O)OC)SC(c2ccccc2)(c2ccccc2)SC1`, for which the GI50 in the assay on PC-3 prostate is 15.3 µM; in the assay with DU-145 prostate, 20.4 µM; in the assay on BT-549 breast, 29.5 µM; in the assay on T-47D breast it was 34.6 µM. For the same compound, the TGI in the assay with PC-3 prostate, in the assay on DU-145 prostate, in the assay with BT-549 breast and with T-47D breast was over 100 µM in each case.
As for `CN1C[C@@H]2Cn3c(c(C4=C(c5cn(C)c6ccccc56)C(=O)NC4=O)c4ccccc43)C[C@H]2C1`, the GI50 is 3.91 µM and 2.81 µM in the assay on PC-3 prostate; 6.27 µM and 5.46 µM with DU-145 prostate; 4.51 µM and 4.36 µM in the assay with BT-549 breast; 4.26 µM and 5.32 µM with T-47D breast. For the same compound, the TGI was 11 µM and 7.08 µM in the assay on PC-3 prostate; 16.3 µM and 14.7 µM in the assay on DU-145 prostate; 8.4 µM and 8.59 µM with BT-549 breast; 9.46 µM and 11.5 µM with T-47D breast.
Regarding `Nc1cc(S(N)(=O)=O)ccc1SSc1ccc(S(N)(=O)=O)cc1N`, the TGI in the assay with PC-3 prostate, with DU-145 prostate, with BT-549 breast, with MDA-N and with T-47D breast was over 100 µM in each case.
On to `CN(C)CCSCCO`, for which the TGI in the assay with PC-3 prostate, in the assay with DU-145 prostate, in the assay on BT-549 breast, in the assay on MDA-N and in the assay on T-47D breast was over 100 µM in each case.
In the case of `CS(=O)(=O)N(CCC#N)c1ccc(C=O)cc1`, the TGI with XF 498 CNS and with DMS 114 small cell lung was over 100 µM each time.
For the compound `Cc1cc(C)c(S(=O)(=O)N(CCc2cccc(Br)c2)Cc2ccc(-c3cccc(S(C)(=O)=O)c3)cc2)c(C)c1`, the GI50 in the assay with PC-3 prostate, in the assay on DU-145 prostate, in the assay on BT-549 breast and in the assay on T-47D breast was over 100 µM each time. The TGI in the assay with PC-3 prostate, in the assay with DU-145 prostate, in the assay on BT-549 breast and in the assay on T-47D breast was over 100 µM each time.
For `Clc1ccc(CNc2nccc(-c3cnn4ncccc34)n2)cc1`, the GI50 is 6.76 µM in the assay with PC-3 prostate, 8.73 µM with DU-145 prostate, 6.4 µM with BT-549 breast and 5.26 µM in the assay on T-47D breast. Besides, the TGI is over 24 µM in the assay on PC-3 prostate, over 25 µM in the assay with DU-145 prostate, 14.7 µM in the assay with BT-549 breast and over 25 µM in the assay on T-47D breast.
`COC(=O)[C@H](C)NC(=O)[C@@H](OC)[C@@H]1Cc2cc3cc(OC4CC(OC5CC(O)C(O)C(C)O5)C(O)C(C)O4)c(C)c(O)c3c(O)c2C(=O)[C@H]1OC1CC(OC2CC(OC3CC(C)(O)C(O)C(C)O3)C(O)C(C)O2)C(O)C(C)O1` (some centres undefined): the GI50 in the assay with PC-3 prostate was 0.184 µM; in the assay on DU-145 prostate it was 0.146 µM; with BT-549 breast, 0.0881 µM; with T-47D breast, 0.143 µM. The TGI was over 50 µM in the assay on PC-3 prostate, over 50 µM in the assay with DU-145 prostate, 1.2 µM in the assay on BT-549 breast and over 50 µM in the assay on T-47D breast.
Take `CSc1ccc(SC2c3ccc(C)cc3Oc3nc(N)c(C#N)c(N)c32)cc1` (centres undefined): the GI50 is 1.64 µM in the assay on PC-3 prostate, 1.85 µM with DU-145 prostate, 1.53 µM with BT-549 breast and 1.9 µM in the assay on T-47D breast. In addition, the TGI with PC-3 prostate came to 3.22 µM; in the assay on DU-145 prostate, 3.26 µM; in the assay with BT-549 breast, 2.87 µM; in the assay on T-47D breast, 4.84 µM.
With `c1ccc(B2OCC(C3OB(c4ccccc4)OC4COB(c5ccccc5)OC43)O2)cc1` (centres undefined), the TGI with PC-3 prostate, with DU-145 prostate, with BT-549 breast, in the assay with MDA-N and in the assay with T-47D breast was over 100 µM throughout.
